In ChEMBL document CHEMBL1140827, “From rigid cyclic templates to conformationally stabilized acyclic scaffolds. Part II: Acyclic replacements for the (3S)-3-benzylpiperidine in a series of potent CCR3 antagonists” (Bioorg Med Chem Lett, 2008):

Legend:
[1] = target: T1, C-C chemokine receptor type 3 (Homo sapiens, UniProt P51677); experiment: Displacement of [125I] eotaxin from human CCR3 receptor in CHO cells; type: cell-based
T1 sequence (P51677 whole entry): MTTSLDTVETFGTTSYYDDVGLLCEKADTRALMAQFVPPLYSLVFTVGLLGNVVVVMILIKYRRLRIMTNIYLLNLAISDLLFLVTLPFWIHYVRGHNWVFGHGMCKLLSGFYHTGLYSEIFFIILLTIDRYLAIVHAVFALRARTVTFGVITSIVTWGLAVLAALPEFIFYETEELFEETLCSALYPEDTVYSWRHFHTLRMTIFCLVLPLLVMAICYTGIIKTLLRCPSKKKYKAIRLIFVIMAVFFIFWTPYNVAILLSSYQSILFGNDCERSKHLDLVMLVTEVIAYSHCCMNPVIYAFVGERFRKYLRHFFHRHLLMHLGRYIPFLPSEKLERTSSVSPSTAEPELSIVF

[2] = target: T2, C-C chemokine receptor type 3 (Homo sapiens) (UniProt P51677); experiment: Antagonist activity at human CCR3 receptor assessed as inhibition of chemotaxis in eosinophil at 30 nM; type: functional; set-up: scale not given: the % may be the effect or the level left
T2 sequence (whole entry): T1 sequence (P51677 whole entry)

[3] = target: T2, C-C chemokine receptor type 3 (Homo sapiens); experiment: Antagonist activity at human CCR3 receptor assessed as inhibition of chemotaxis in eosinophil at 3 nM; type: functional; set-up: scale not given: the % may be the effect or the level left
[4] = target: T2, C-C chemokine receptor type 3 (Homo sapiens); experiment: Antagonist activity at human CCR3 receptor assessed as inhibition of chemotaxis in eosinophil at 0.3 nM; type: functional; set-up: scale not given: the % may be the effect or the level left
[5] = target: T2, C-C chemokine receptor type 3 (Homo sapiens); experiment: Antagonist activity at human CCR3 receptor assessed as inhibition of chemotaxis in eosinophil at 0.03 nM; type: functional; set-up: scale not given: the % may be the effect or the level left
[6] = target: C-C chemokine receptor type 3 (Homo sapiens, UniProt P51677); experiment: Displacement of [125I] eotaxin from human CCR3/CCR2 chimeric receptor in CHO cells; type: cell-based

Row | Structure (SMILES) | IC50 [1] [nM] | further results
1 | C[C@H]([C@@H](O)c1ccccc1)N(C)C[C@H](O)[C@@H](C)NC(=O)Nc1cccc(-c2nnnn2C)c1 | 238 | –
2 | C[C@@H](NC(=O)Nc1cccc(-c2nnnn2C)c1)[C@@H](O)CN(CCCc1ccc(F)cc1)CC12CC3CC(CC(C3)C1)C2 | 421 | –
3 | CCc1cc(NC(=O)N[C@H](C)[C@@H](O)CN(CC)CCCc2ccc(F)cc2)cc(-c2nnnn2C)c1 (stereo in doubt; 5Et) | – | IC50 ([1]; cho): 0.4 nM
4 | CCN(C[C@H](O)[C@@H](C)NC(=O)Nc1cccc(-c2nnnn2C)c1)[C@@H](C)[C@@H](O)Cc1ccc(F)cc1 | 19 | –
5 | CCc1cc(NC(=O)N[C@H](C)[C@@H](O)CN(CC)[C@@H](C)[C@H](O)Cc2ccc(F)cc2)cc(-c2nnnn2C)c1 | 3.4 | –
6 | C[C@@H](NC(=O)Nc1cccc(-c2nnnn2C)c1)[C@@H](O)CN(C)[C@@H](C)[C@H](O)c1ccccc1 | 5.7 | –
7 | CCc1cc(NC(=O)N[C@H](C)[C@@H](O)CN(CCCc2ccc(F)cc2)CC23CC4CC(CC(C4)C2)C3)cc(-c2nnnn2C)c1 | 211 | –
8 | C[C@H]([C@H](O)c1ccccc1)N(C)C[C@H](O)[C@@H](C)NC(=O)Nc1cccc(-c2nnnn2C)c1 | 577 | –
9 | CCN(C[C@H](O)[C@@H](C)NC(=O)Nc1cccc(-c2nnnn2C)c1)[C@@H](C)[C@H](O)Cc1ccc(F)cc1 | 88 | –
10 | CCc1cc(NC(=O)N[C@H](C)[C@@H](O)CN(CCCc2ccc(F)cc2)C(C)=O)cc(-c2nnnn2C)c1 | 6 | –
11 | CCc1cc(NC(=O)N[C@H](C)[C@@H](O)CN(CCCc2ccc(F)cc2)Cc2ccccc2)cc(-c2nnnn2C)c1 | 2.5 | Activity [4]: 61%; Activity [5]: 9%
12 | C[C@@H](NC(=O)Nc1cccc(-c2nnnn2C)c1)[C@@H](O)CN(CCCc1ccc(F)cc1)CC(F)(F)F | 59 | –
13 | Cn1nnnc1-c1cccc(NC(=O)N[C@@H]2CCCC[C@H]2CNCCCc2ccc(F)cc2)c1 | 3.7 | –
14 | CCc1cc(NC(=O)N[C@H](C)[C@@H](O)CN(CCCc2ccc(F)cc2)CC(F)(F)F)cc(-c2nnnn2C)c1 | 9 | –
15 | CCc1cc(NC(=O)N[C@H](C)[C@@H](O)CN(CCCc2ccc(F)cc2)C2CCCCC2)cc(-c2nnnn2C)c1 | 3.2 | Activity [2]: 58%; Activity [3]: 0%
16 | Cn1nnnc1-c1cccc(NC(=O)N[C@@H]2CCCC[C@H]2CN(CCCc2ccc(F)cc2)CC(F)(F)F)c1 | 60 | –
17 | CCN(C[C@H](O)[C@@H](C)NC(=O)Nc1cccc(-c2nnnn2C)c1)[C@@H](C)CCc1ccc(F)cc1 | 2.5 | –
18 | CCc1cc(NC(=O)N[C@H](C)[C@@H](O)CN(CCCc2ccc(F)cc2)S(C)(=O)=O)cc(-c2nnnn2C)c1 | 21.6 | –

More lines, main results first:

Row | IC50 [1] [nM] | Structure (SMILES) | further results
19 | 1.2 | CCc1cc(NC(=O)N[C@H](C)[C@@H](O)CN(CC)[C@@H](C)[C@@H](O)Cc2ccc(F)cc2)cc(-c2nnnn2C)c1 | –
20 | 0.2 | CCc1cc(NC(=O)N[C@H](C)[C@@H](O)CN(CC)[C@@H](C)CCc2ccc(F)cc2)cc(-c2nnnn2C)c1 | –
21 | 0.4 | C[C@@H](NC(=O)Nc1cccc(-c2nnnn2C)c1)[C@@H](O)CN(CCCc1ccc(F)cc1)C1CC1 | –
22 | 0.3 | CCc1cc(NC(=O)N[C@H](C)[C@@H](O)CNCCCc2ccc(F)cc2)cc(-c2nnnn2C)c1 | Activity [2]: 55%; Activity [3]: 42%
23 | 0.5 | CCc1cc(NC(=O)N[C@H](C)[C@@H](O)CN(C)[C@@H](C)[C@@H](O)c2ccccc2)cc(-c2nnnn2C)c1 | –
24 | 0.4 | CCc1cc(NC(=O)N[C@H](C)[C@@H](O)CN(CC)CCCc2ccc(F)cc2)cc(-c2nnnn2C)c1 (stereo in doubt; 5b) | –
25 | 0.2 | CCCN(CCCc1ccc(F)cc1)C[C@H](O)[C@@H](C)NC(=O)Nc1cccc(-c2nnnn2C)c1 | Activity [3]: 43%
26 | 0.5 | CCCN(CCCc1ccc(F)cc1)C[C@H](O)[C@@H](C)NC(=O)Nc1cc(CC)cc(-c2nnnn2C)c1 | Activity [4]: 62%; Activity [5]: 42%
27 | 0.2 | CCN(CCCc1ccc(F)cc1)C[C@H](O)[C@@H](C)NC(=O)Nc1cccc(-c2nnnn2C)c1 | Activity [4]: 34%
28 | 2.5 | C[C@@H](NC(=O)Nc1cccc(-c2nnnn2C)c1)[C@@H](O)CN(CCCc1ccc(F)cc1)C1CCCCC1 | –
29 | 1.8 | CCc1cc(NC(=O)N[C@H](C)[C@@H](O)CN2CCC[C@@H](Cc3ccc(F)cc3)C2)cc(-c2nnnn2C)c1 | –
30 | 0.4 | C[C@@H](NC(=O)Nc1cccc(-c2nnnn2C)c1)[C@@H](O)CN(C)[C@@H](C)[C@@H](O)c1ccccc1 | Activity [2]: 67%
31 | 0.3 | CCc1cc(NC(=O)N[C@H](C)[C@@H](O)CN(C)CCCc2ccc(F)cc2)cc(-c2nnnn2C)c1 | –
32 | 0.6 | CCc1cc(NC(=O)N[C@H](C)[C@@H](O)CN(CCCc2ccc(F)cc2)C2CC2)cc(-c2nnnn2C)c1 | –
33 | 0.4 | C[C@@H](NC(=O)Nc1cccc(-c2nnnn2C)c1)[C@@H](O)CN(CCCc1ccc(F)cc1)CC1CC1 | Activity [3]: 44%
34 | 0.4 | C[C@@H](NC(=O)Nc1cccc(-c2nnnn2C)c1)[C@@H](O)CN(C)CCCc1ccc(F)cc1 | Activity [2]: 0%
35 | 0.6 | CCc1cc(NC(=O)N[C@H](C)[C@@H](O)CN(CCCc2ccc(F)cc2)CC2CC2)cc(-c2nnnn2C)c1 | –
36 | 0.6 | CN(CCCc1ccc(F)cc1)C[C@@H]1CCCC[C@H]1NC(=O)Nc1cccc(-c2nnnn2C)c1 | –
37 | 0.3 | C[C@@H](NC(=O)Nc1cccc(-c2nnnn2C)c1)[C@@H](O)CN1CCC[C@@H](Cc2ccc(F)cc2)C1 | IC50 [6]: 0.4 nM
